In patent US6350764B2, “Heteroaryl aminoguanidines and alkoxyguanidines and their use as protease inhibitors” (3-Dimensional Pharmaceuticals, Inc., priority 1997, dated 2002):
Counter-ions that a name gives are not always drawn.

Experiments:
Assay type in all cases: biochemical
human leukocyte elastase = target: T1, human leukocyte elastase (Homo sapiens, UniProt P08246); assay: In vitro inhibition of purified enzymes: elastase, hydrolysis of N-succinyl-Ala-Ala-Pro-Val-p-nitroanilide; settings: for inhibition at 18 µM: at 18,000 nM
T1 construct: purchased Elastin Products (Pacific, Mo.)
T1 sequence (P08246 30-247 limits assumed): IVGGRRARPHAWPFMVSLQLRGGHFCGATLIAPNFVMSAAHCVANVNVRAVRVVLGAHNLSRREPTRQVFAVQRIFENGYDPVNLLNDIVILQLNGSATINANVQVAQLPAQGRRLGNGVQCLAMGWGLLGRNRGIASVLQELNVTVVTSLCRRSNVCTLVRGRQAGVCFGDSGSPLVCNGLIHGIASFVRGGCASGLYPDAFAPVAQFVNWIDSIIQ
Description: (§1) Reagents: All buffer salts were obtained from Sigma Chemical Company (St. Louis, Mo.), and were of the highest purity available. The enzyme substrates, N-benzoyl-Phe-Val-Arg-p-nitroaniide (Sigma B7632) N-benzoyl-Ile-Glu-Gly-Arg-p-nitroanilide hydrochloride (Sigma B2291), N-p-Tosyl-Gly-Pro-Lys-p-nitroanilide (Sigma T6140), N-succinyl-Ala-Ala-Pro-Phe-p-nitroanilide (Sigma S7388) and N-CBZ-Val-Gly-Arg-p-nitroanilide (Sigma C7271) were obtained from Sigma. N-succinyl-Ala-Ala-Pro-Arg-p-nitroanilide (BACHEM L-1720) and N-succinyl-Ala-Ala-Pro-Val-p-nitroanilide (BACHEM L-1770) were obtained from BACHEM (King of Prussia, Pa.).
(§2) Human α-thrombin, human factor Xa and human plasmin were obtained from Enzyme Research Laboratories (South Bend, Id.). Bovine α-chymotrypsin (Sigma C4129), bovine trypsin (Sigma T8642) and human kidney cell urokinase (Sigma U5004) were obtained from Sigma. Human leukocyte elastase was obtained from Elastin Products (Pacific, Mo.).
(§3) Ki Determinations: All assays are based on the ability of the test compound to inhibit the enzyme catalyzed hydrolysis of a peptide p-nitroanilide substrate. In atypical Ki determination, substrate is prepared in DMSO, and diluted into an assay buffer consisting of 50 mM HEPES, 200 mM NaCl, pH 7.5. The final concentrations for each of the substrates is listed below. In general, substrate concentrations are lower than the experimentally determined value for Km. Test compounds are prepared as a 1.0 mg/ml solution in DMSO. Dilutions are prepared in DMSO yielding 8 final concentrations encompassing a 200 fold concentration range. Enzyme solutions are prepared at the concentrations listed below in assay buffer.
(§4) In a typical Ki determination, into each well of a 96 well plate is pipetted 280 mL of substrate solution, 10 mL of test compound solution, and the plate allowed to thermally equilibrate at 37° C. in a Molecular Devices plate reader for>15 minutes. Reactions were initiated by the addition of a […] aliquot of enzyme and the absorbance increase at 405 nm is recorded for 15 minutes. Data corresponding to less than 10% of the total substrate hydrolysis were used in the calculations. The ratio of the velocity (rate of change in absorbance as a function of time) for a sample containing no test compound is divided by the velocity of a sample containing test compound, and is plotted as a function of test compound concentration. The data are fit to a linear regression, and the value of the slope of the line calculated. The inverse of the slope is the experimentally determined Ki value.
Elastase: Elastase activity was assessed as the ability to hydrolyze N-succinyl-Ala-Ala-Pro-Val-p-nitroanilide. Substrate solutions were prepared at a concentration of 19 mM (19 mM<<Km=89 mM) in assay buffer. Final DMSO concentration was 4.3%. Purified human leukocyte elastase was diluted into assay buffer to a concentration of 750 nM. Final reagent concentrations were: [Elastase]=25 nM, [N-succinyl-Ala-Ala-Pro-Val-p-nitroanilide]=19 mM.

human factor Xa = target: T2, human factor Xa (Homo sapiens, UniProt P00742); assay: In vitro inhibition of purified enzymes: Factor X [FXa], hydrolysis of N-benzoyl-Ile-Glu-Gly-Arg-p-nitroanilide; settings: 37° C., pH 7.5
T2 construct: purchased Enzyme Research Laboratories (South Bend)
Description: as §1, §2, §3, §4
Factor X [FXa]: FXa activity was assessed as the ability to hydrolyze the substrate N-benzoyl-Ile-Glu-Gly-Arg-p-nitroanilide hydrochloride. […] Final DMSO concentration was 4.3%. Purified activated human Factor X was diluted into assay buffer to a concentration of 300 nM. Final reagent concentrations were: [FXa]=10 nM, [N-benzoyl-Ile-Glu-Gly-Arg-p-nitroanilide hydrochloride]=51 mM.

human α-thrombin = target: T3, human α-thrombin (Homo sapiens, UniProt P00734); assay: In vitro inhibition of purified enzymes: thrombin, hydrolysis of N-succinyl-Ala-Ala-Pro-Arg-p-nitroanilide; settings: 37° C., pH 7.5
T3 construct: Purified human a-thrombin was diluted into assay buffer; purchased Enzyme Research Laboratories (South Bend)
Description: as §1, with “Sigma.” for “Sigma. N-succinyl-Ala-Ala-Pro-Arg-p-nitroanilide (BACHEM L-1720) and N-succinyl-Ala-Ala-Pro-Val-p-nitroanilide (BACHEM L-1770) were obtained from BACHEM (King of Prussia, Pa.).”
as §2
as §3, with “In atypical Ki determination, substrate is prepared in DMSO, and diluted into an assay buffer consisting of 50 mM HEPES, 200 mM NaCl, pH 7.5.” left out
as §4, with “Reactions” for “In a typical Ki determination, into each well of a 96 well plate is pipetted 280 mL of substrate solution, 10 mL of test compound solution, and the plate allowed to thermally equilibrate at 37° C. in a Molecular Devices plate reader for>15 minutes. Reactions”
Thrombin: Thrombin activity was assessed as the ability to hydrolyze the substrate N-succinyl-Ala-Ala-Pro-Arg-p-nitroanilide. […] Final reagent concentrations were: [thrombin]=0.5 nM, [substrate N-succinyl-Ala-Ala-Pro-Arg-p-nitroanilide]=32 mM.

bovine trypsin = target: T4, bovine trypsin (Bos taurus, UniProt P00760); assay: In vitro inhibition of purified enzymes: trypsin, hydrolysis of N-benzoyl-Phe-Val-Arg-p-nitroanilide; settings: for Ki: 37° C., pH 7.5
T4 construct: Purified bovine trypsin was diluted into assay buffer; purchased Sigma T8642
T4 sequence (P00760 24-246): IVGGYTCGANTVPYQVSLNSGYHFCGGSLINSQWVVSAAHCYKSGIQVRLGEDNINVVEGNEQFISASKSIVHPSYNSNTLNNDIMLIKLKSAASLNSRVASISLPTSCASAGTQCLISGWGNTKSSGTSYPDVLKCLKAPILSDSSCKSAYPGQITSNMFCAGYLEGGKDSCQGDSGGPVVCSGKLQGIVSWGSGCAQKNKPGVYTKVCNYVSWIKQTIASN
Description: as §1, §2, §3, §4
Trypsin: Trypsin activity was assessed as the ability to hydrolyze N-benzoyl-Phe-Val-Arg-p-nitroanilide. […] Final DMSO concentration was 4.3%. Purified bovine trypsin was diluted into assay buffer to a concentration of 120 nM. Final reagent concentrations were: [Trypsin]=4 nM, [N-benzoyl-Phe-Val-Arg-p-nitroanilide]=13 mM.

human plasmin = target: T5, human plasmin (Homo sapiens, UniProt P00747); assay: In vitro inhibition of purified enzymes: plasmin, hydrolysis of N-p-Tosyl-Gly-Pro-Lys-p-nitroanilide
T5 construct: Purified human plasmin was diluted into assay buffer; purchased Enzyme Research Laboratories (South Bend)
Description: as §1, §2, §3, §4
Plasmin: Plasmin activity was assessed as the ability to hydrolyze the N-p-Tosyl-Gly-Pro-Lys-p-nitroanilide. Substrate solutions were prepared at a concentration of 37 mM (37 mM<<Km=243 mM) in assay buffer. Final DMSO concentration was 4.3%. Purified human plasmin was diluted into assay buffer to a concentration of 240 nM. Final reagent concentrations were: [Plasmin]=8 nM, [N-p-Tosyl-Gly-Pro-Lys-p-nitroanilide]=37 mM.

bovine α-chymotrypsin = target: T6, bovine α-chymotrypsin (Bos taurus, UniProt P00766); assay: In vitro inhibition of purified enzymes: chymotrypsin, hydrolysis of N-succinyl-Ala-Ala-Pro-Phe-p-nitroanilide
T6 construct: Bovine α-chymotrypsin (Sigma C4129); purchased Sigma C4129
Description: as §1, §2, §3, §4
Chymotrypsin: Chymotrypsin activity was assessed as the ability to hydrolyze N-succinyl-Ala-Ala-Pro-Phe-p-nitroanilide. […] Final DMSO concentration was 4.3%. Purified bovine chymotrypsin was diluted into assay buffer to a concentration of 81 nM. Final reagent concentrations were: [Chymotrypsin]=2.7 nM, [N-succinyl-Ala-Ala-Pro-Phe-p-nitroanilide]=14 mM.

T5 sequence (P00747 581-810 limits assumed): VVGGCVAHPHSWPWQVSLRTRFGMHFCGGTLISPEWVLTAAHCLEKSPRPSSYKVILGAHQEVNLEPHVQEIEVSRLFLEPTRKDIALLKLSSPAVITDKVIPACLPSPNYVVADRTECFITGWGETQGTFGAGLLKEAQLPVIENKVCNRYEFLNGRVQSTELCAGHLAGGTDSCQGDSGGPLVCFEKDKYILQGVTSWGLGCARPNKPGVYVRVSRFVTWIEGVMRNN
T5 sequence (P00747 97-580 partner limits assumed): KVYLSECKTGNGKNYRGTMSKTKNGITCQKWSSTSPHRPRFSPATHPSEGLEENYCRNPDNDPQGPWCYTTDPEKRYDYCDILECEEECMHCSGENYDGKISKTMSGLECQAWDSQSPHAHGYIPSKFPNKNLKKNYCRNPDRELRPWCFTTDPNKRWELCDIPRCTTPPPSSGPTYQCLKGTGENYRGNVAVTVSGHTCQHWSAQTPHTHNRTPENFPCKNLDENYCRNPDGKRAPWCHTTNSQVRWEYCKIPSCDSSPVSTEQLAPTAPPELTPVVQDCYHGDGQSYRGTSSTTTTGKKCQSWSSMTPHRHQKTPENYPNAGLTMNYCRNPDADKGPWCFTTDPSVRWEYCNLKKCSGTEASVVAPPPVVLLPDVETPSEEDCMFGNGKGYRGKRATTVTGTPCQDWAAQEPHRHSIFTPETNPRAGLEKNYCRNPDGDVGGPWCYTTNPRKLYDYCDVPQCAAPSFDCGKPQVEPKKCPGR
T2 sequence (P00742 235-488 limits assumed): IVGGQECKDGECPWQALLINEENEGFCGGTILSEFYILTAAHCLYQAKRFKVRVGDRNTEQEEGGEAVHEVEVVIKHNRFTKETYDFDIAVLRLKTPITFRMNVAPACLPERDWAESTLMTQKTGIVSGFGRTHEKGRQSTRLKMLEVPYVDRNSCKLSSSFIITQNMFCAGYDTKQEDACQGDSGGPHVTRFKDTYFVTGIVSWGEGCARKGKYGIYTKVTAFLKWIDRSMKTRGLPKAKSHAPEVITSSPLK
T2 sequence (P00742 41-179 partner limits assumed): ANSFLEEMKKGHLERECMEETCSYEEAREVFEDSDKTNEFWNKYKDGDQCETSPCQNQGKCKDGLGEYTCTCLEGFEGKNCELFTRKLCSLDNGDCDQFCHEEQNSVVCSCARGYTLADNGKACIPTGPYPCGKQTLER

Q: What does the source list for Cc1ccc(NS(=O)(=O)Cc2ccc(Cl)cc2)c(=O)n1CC(=O)NCCONC(=N)N [Example 16, 3-(4-Chlorobenzylsulfonyl)amino-6-methyl-1-[(2-guanidinooxyethyl)aminocarbonylmethyl]-2-pyridinone trifluoroacetate]?
A: inhibition at 19 µM (human leukocyte elastase; at 19,000 nM): 0%; Ki (human factor Xa): 2.2 µM; Ki (human α-thrombin): 0.002 µM; Ki (bovine trypsin): 4 µM

Q: What does the source list for Cc1ccc(NS(=O)(=O)c2ccc3cc(Cl)ccc3c2)c(=O)n1CC(=O)NCCONC(=N)N [Example 85, 3-(6-Chloronaphthalene-2-sulfonyl)amino-6-methyl-1-[(2-guanidinooxyethyl)aminocarbonylmethyl]-2-pyridinone trifluoroacetate]?
A: inhibition at 18 µM (human leukocyte elastase): 0%; Ki (human factor Xa): 1.3 µM; Ki (human α-thrombin): 0.29 µM; inhibition at 18 µM (human plasmin; at 18,000 nM): 0%; Ki (bovine trypsin): 1.6 µM; inhibition at 18 µM (bovine α-chymotrypsin; at 18,000 nM, read-out: % Inhibition Chymo.): 0%

Q: How did the inhibition at 23.5 µM (human leukocyte elastase; at 23,500 nM) turn out when Cc1ccc(NS(=O)(=O)c2ccccc2Cl)c(=O)n1CC(=O)NCCONC(=N)N [Example 30, 3-(2-Chlorophenylsulfonyl)amino-6-methyl-1-[(2-guanidinooxyethyl)aminocarbonylmethyl]-2-pyridinone trifluoroacetate] was run?
A: 0%

Q: And the Ki (human factor Xa)?
A: 7.6 µM

Q: What about the Ki (human α-thrombin) of the same molecule?
A: 0.061 µM

Q: And the inhibition at 23.5 µM (human plasmin; at 23,500 nM)?
A: 0%

Q: And the inhibition at 23.5 µM (bovine trypsin; at 23,500 nM)?
A: 0%

Q: And the inhibition at 23.5 µM (bovine α-chymotrypsin; at 23,500 nM, read-out: % Inhibition Chymo.)?
A: 0%

Q: Cc1ccc(NS(=O)(=O)c2ccccc2[N+](=O)[O-])c(=O)n1CC(=O)NCCONC(=N)N [Example 71, 3-(2-Nitrophenylsulfonyl)amino-6-methyl-1-[(2-guanidinooxyethyl)aminocarbonylmethyl]-2-pyridinone trifluoroacetate] was tested. Which inhibition at 12 µM (human leukocyte elastase; at 12,000 nM) did it give?
A: 0%

Q: And the Ki (human factor Xa)?
A: 8.7 µM

Q: What about the Ki (human α-thrombin) of the same molecule?
A: 0.58 µM

Q: And the inhibition at 12 µM (human plasmin; at 12,000 nM)?
A: 0%

Q: And the inhibition at 12 µM (bovine trypsin; at 12,000 nM)?
A: 0%

Q: What about the inhibition at 12 µM (bovine α-chymotrypsin; at 12,000 nM, read-out: % Inhibition Chymo.) of the same molecule?
A: 0%

Q: How did the inhibition at 24.6 µM (human leukocyte elastase; at 24,600 nM) turn out when Cc1cccc(S(=O)(=O)Nc2ccc(C)n(CC(=O)NCCONC(=N)N)c2=O)c1 [Example 5, 3-(3-Methylphenylsulfonyl)amino-6-methyl-1-[(2-guanidinooxyethyl)aminocarbonylmethyl]-2-pyridinone trifluoroacetate] was run?
A: 0%

Q: And the inhibition at 24.6 µM (human plasmin; at 24,600 nM)?
A: 0%

Q: And the inhibition at 24.6 µM (bovine trypsin; at 24,600 nM)?
A: 0%

Q: And the inhibition at 24.6 µM (bovine α-chymotrypsin; at 24,600 nM, read-out: % Inhibition Chymo.)?
A: 0%

Q: Which inhibition at 79 µM (human leukocyte elastase; at 79,000 nM) does the source give for N=C(N)NOCCNC(=O)Cn1cccc(NS(=O)(=O)Cc2ccccc2)c1=O [Example 4, 3-Benzylsulfonylamino-1-[(2-guanidinooxyethyl)aminocarbonylmethyl]-2-pyridinone trifluoroacetate] here?
A: 0%

Q: And the Ki (human factor Xa)?
A: 7.9 µM

Q: What about the Ki (human α-thrombin) of the same molecule?
A: 0.029 µM

Q: With Cc1ccc(NS(=O)(=O)Cc2ccc(Cl)c(Cl)c2)c(=O)n1CC(=O)NCCONC(=N)N [Example 24, 3-(3,4-Dichlorobenzylsulfonyl)amino-6-methyl-1-[(2-guanidinooxyethyl)aminocarbonylmethyl]-2-pyridinone trifluoroacetate] as the molecule, how does the inhibition at 18 µM (human leukocyte elastase) read?
A: 0%

Q: And the Ki (human factor Xa)?
A: 2.2 µM

Q: What about the Ki (human α-thrombin) of the same molecule?
A: 0.002 µM

Q: And the Ki (bovine trypsin)?
A: 7.6 µM

Q: How did the Ki (human factor Xa) turn out when COc1ccc(Br)cc1S(=O)(=O)Nc1ccc(C)n(CC(=O)NCCONC(=N)N)c1=O [Example 55, 3-(3-Bromo-6-methoxyphenylsulfonyl)amino-6-methyl-1-[(2-guanidinooxyethyl)aminocarbonylmethyl]-2-pyridinoine trifluoroacetate] was run?
A: 2.1 µM

Q: And the Ki (human α-thrombin)?
A: 0.22 µM

Q: And the Ki (bovine trypsin)?
A: 2.3 µM

Q: How did the inhibition at 56 µM (human leukocyte elastase; at 56,000 nM) turn out when Cc1ccc(NS(=O)(=O)Cc2ccccc2)c(=O)n1CC(=O)N1CCC(ONC(=N)N)CC1 [Example 8, 3-(Benzylsulfonyl)amino-6-methyl-1-[(4-guanidinooxy)piperidinylcarbonylmethyl]-2-pyridinone trifluoroacetate] was run?
A: 0%

Q: What about the Ki (human α-thrombin) of the same molecule?
A: 0.043 µM

Q: What about the inhibition at 56 µM (bovine trypsin; at 56,000 nM) of the same molecule?
A: 0%

Q: How did the inhibition at 24.5 µM (human leukocyte elastase; at 24,500 nM) turn out when Cc1ccc(NS(=O)(=O)Cc2ccccc2)c(=O)n1CC(=O)NCCONC(=N)N [Example 2, 3-Benzylsulfonylamino-6-methyl-1-[(2-guanidinooxyethyl)aminocarbonylmethyl]-2-pyridinone trifluoroacetate] was run?
A: 0%

Q: What about the Ki (human factor Xa) of the same molecule?
A: 24 µM

Q: What about the Ki (human α-thrombin) of the same molecule?
A: 0.0079 µM

Q: And the inhibition at 24.5 µM (human plasmin; at 24,500 nM)?
A: 0%

Q: What about the inhibition at 24.5 µM (bovine trypsin; at 24,500 nM) of the same molecule?
A: 0%

Q: And the Ki (bovine α-chymotrypsin; 37° C., pH 7.5, read-out: Ki Chymo.)?
A: 14 µM
